Test results reported in patent US20250186437A1, “CARBOLINE COMPOUNDS AND USE THEREOF” (PTC Therapeutics, Inc., priority 2021, published 2025).

The molecules below were run on MOLM-13 cells (assay: MOLM-13 Cell Proliferation Assay (indicator of DHODH inhibition)). Conditions: Homo sapiens, 72 Hours of culture, CellTiter-Glo, no uridine.
Assay type: cell-based
Method in brief: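 Proliferation readout via CellTiter-Glo luminescence after 72 h compound treatment (37 °C, 5% CO2, 0.5% DMSO) of MOLM-13 cells seeded at 10^4 per well in RPMI 1640/10% FBS, used as a DHODH-inhibition indicator since these cells rely on de novo pyrimidine synthesis.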
An IC50 of 4 nM was found for COC(=O)CCc1ccc(C2c3[nH]c4cc(F)c(Cl)cc4c3CCN2c2nccc(C(F)(F)F)n2)cc1 (stereo not drawn) [Compound 164, methyl 3-(4-{6-chloro-7-fluoro-2-[4-(trifluoromethyl)pyrimidin-2-yl]-2,3,4,9-tetrahydro-1H-pyrido[3,4-b]indol-1-yl}phenyl)propanoate] in this work. An IC50 of 16.7 nM was found for COC(=O)CCc1ccc(C2c3[nH]c4cc(F)c(Cl)cc4c3CCN2c2ncc(F)cn2)cc1 (stereo not drawn) [Compound 165, methyl 3-{4-[6-chloro-7-fluoro-2-(5-fluoropyrimidin-2-yl)-2,3,4,9-tetrahydro-1H-pyrido[3,4-b]indol-1-yl]phenyl}propanoate] in this work. An IC50 of 7.1 nM was found for OCc1ccc(C2c3[nH]c4cc(F)c(Cl)cc4c3CCN2c2nccc(C(F)(F)F)n2)cc1 (stereo not drawn) [Compound 166, (4-{6-chloro-7-fluoro-2-[4-(trifluoromethyl)pyrimidin-2-yl]-2,3,4,9-tetrahydro-1H-pyrido[3,4-b]indol-1-yl}phenyl)methanol] in this work. An IC50 of 1.1 nM was found for OCC/C=C/c1ccc(C2c3[nH]c4cc(F)c(Cl)cc4c3CCN2c2nccc(C(F)(F)F)n2)cc1 (stereo not drawn) [Compound 167, (3E)-4-(4-{6-chloro-7-fluoro-2-[4-(trifluoromethyl)pyrimidin-2-yl]-2,3,4,9-tetrahydro-1H-pyrido[3,4-b]indol-1-yl}phenyl)but-3-en-1-ol] in this work. An IC50 of 4.1 nM was found for OCCCCc1ccc(C2c3[nH]c4cc(F)c(Cl)cc4c3CCN2c2nccc(C(F)(F)F)n2)cc1 (stereo not drawn) [Compound 168, 4-(4-{6-chloro-7-fluoro-2-[4-(trifluoromethyl)pyrimidin-2-yl]-2,3,4,9-tetrahydro-1H-pyrido[3,4-b]indol-1-yl}phenyl)butan-1-ol] in this work. An IC50 of 2.2 nM was found for Cc1ccc(C2c3[nH]c4cc(F)c(Cl)cc4c3CCN2c2nc(C)c(C)c(C)n2)c(F)c1F (stereo not drawn) [Compound 169, 6-chloro-1-(2,3-difluoro-4-methylphenyl)-7-fluoro-2-(4,5,6-trimethylpyrimidin-2-yl)-2,3,4,9-tetrahydro-1H-pyrido[3,4-b]indole] in this work. An IC50 of 10.6 nM was found for CN(C)c1ccc(C2c3[nH]c4cc(F)c(Cl)cc4c3CCN2c2nccc(C(F)(F)F)n2)cc1 (stereo not drawn) [Compound 170, 4-{6-chloro-7-fluoro-2-[4-(trifluoromethyl)pyrimidin-2-yl]-2,3,4,9-tetrahydro-1H-pyrido[3,4-b]indol-1-yl}-N,N-dimethylaniline] in this work. An IC50 of 5 nM was found for Cc1nc(N2CCc3c([nH]c4cc(F)c(Cl)cc34)C2c2cccc(F)c2F)nc(C)c1C (stereo not drawn) [Compound 171, 6-chloro-1-(2,3-difluorophenyl)-7-fluoro-2-(4,5,6-trimethylpyrimidin-2-yl)-2,3,4,9-tetrahydro-1H-pyrido[3,4-b]indole] in this work. An IC50 of 1.5 nM was found for Fc1cc2[nH]c3c(c2cc1Cl)CCN(c1nccc(C(F)(F)F)n1)C3c1ccc(Br)c(F)c1F (stereo not drawn) [Compound 172, 1-(4-bromo-2,3-difluorophenyl)-6-chloro-7-fluoro-2-[4-(trifluoromethyl)pyrimidin-2-yl]-2,3,4,9-tetrahydro-1H-pyrido[3,4-b]indole] in this work. An IC50 of 8.6 nM was found for CN(C)c1ccc(C2c3[nH]c4cc(F)c(Cl)cc4c3CCN2c2nccc(C(F)(F)F)n2)c(F)c1F (stereo not drawn) [Compound 173, 4-{6-chloro-7-fluoro-2-[4-(trifluoromethyl)pyrimidin-2-yl]-2,3,4,9-tetrahydro-1H-pyrido[3,4-b]indol-1-yl}-2,3-difluoro-N,N-dimethylaniline] in this work. An IC50 of 7.8 nM was found for Cc1ccc(C2c3[nH]c4ccc(C)c(F)c4c3CCN2c2nccc(C(F)(F)F)n2)cc1 (stereo not drawn) [Compound 174, 5-fluoro-6-methyl-1-(4-methylphenyl)-2-[4-(trifluoromethyl)pyrimidin-2-yl]-2,3,4,9-tetrahydro-1H-pyrido[3,4-b]indole] in this work. An IC50 of 4.7 nM was found for Cc1ccc(C2c3[nH]c4cc(F)c(Cl)cc4c3CCN2c2ncc(F)c(C#N)n2)cc1 (stereo not drawn) [Compound 175, 2-[6-chloro-7-fluoro-1-(4-methylphenyl)-1,3,4,9-tetrahydro-2H-pyrido[3,4-b]indol-2-yl]-5-fluoropyrimidine-4-carbonitrile] in this work. An IC50 of 58.1 nM was found for Cc1ccc([C@@H]2c3[nH]c4ccc(Cl)cc4c3CCN2c2nccc(C#N)n2)c(F)c1F [Compound 176, 2-[(1R)-6-chloro-1-(2,3-difluoro-4-methylphenyl)-1,3,4,9-tetrahydro-2H-pyrido[3,4-b]indol-2-yl]pyrimidine-4-carbonitrile] in this work. An IC50 of 3.9 nM was found for CN(C)c1ccc(C2c3[nH]c4ccc(Cl)c(F)c4c3CCN2c2nccc(C(F)(F)F)n2)cn1 (stereo not drawn) [Compound 177, 5-{6-chloro-5-fluoro-2-[4-(trifluoromethyl)pyrimidin-2-yl]-2,3,4,9-tetrahydro-1H-pyrido[3,4-b]indol-1-yl}-N,N-dimethylpyridin-2-amine] in this work. An IC50 of 3.4 nM was found for CN(C)c1ncc(C2c3[nH]c4ccc(Cl)c(F)c4c3CCN2c2nccc(C(F)(F)F)n2)cn1 (stereo not drawn) [Compound 178, 5-{6-chloro-5-fluoro-2-[4-(trifluoromethyl)pyrimidin-2-yl]-2,3,4,9-tetrahydro-1H-pyrido[3,4-b]indol-1-yl}-N,N-dimethylpyrimidin-2-amine] in this work. An IC50 of 23.2 nM was found for Cc1ccc([C@@H]2c3[nH]c4ccc(Cl)cc4c3CCN2c2ncc(F)cn2)c(F)c1F [Compound 179, (1R)-6-chloro-1-(2,3-difluoro-4-methylphenyl)-2-(5-fluoropyrimidin-2-yl)-2,3,4,9-tetrahydro-1H-pyrido[3,4-b]indole] in this work. An IC50 of 11.3 nM was found for Cc1ccc([C@@H]2c3[nH]c4ccc(Cl)cc4c3CCN2c2nccc(C(F)(F)F)n2)c(F)c1F [Compound 180, (1R)-6-chloro-1-(2,3-difluoro-4-methylphenyl)-2-[4-(trifluoromethyl)pyrimidin-2-yl]-2,3,4,9-tetrahydro-1H-pyrido[3,4-b]indole] in this work. An IC50 of 177 nM was found for Fc1c(Cl)ccc2[nH]c3c(c12)CCN(c1nccc(C(F)(F)F)n1)[C@@H]3c1ccc(Cl)cc1 [Compound 181, (1R)-6-chloro-1-(4-chlorophenyl)-5-fluoro-2-[4-(trifluoromethyl)pyrimidin-2-yl]-2,3,4,9-tetrahydro-1H-pyrido[3,4-b]indole] in this work. An IC50 of 1.3 nM was found for Fc1c(Cl)ccc2[nH]c3c(c12)CCN(c1nccc(C(F)(F)F)n1)[C@H]3c1ccc(Cl)cc1 [Compound 182, (1S)-6-chloro-1-(4-chlorophenyl)-5-fluoro-2-[4-(trifluoromethyl)pyrimidin-2-yl]-2,3,4,9-tetrahydro-1H-pyrido[3,4-b]indole] in this work. An IC50 of 4.5 nM was found for N#Cc1nc(N2CCc3c([nH]c4cc(F)c(Cl)cc34)C2c2cccc(F)c2F)ncc1F (stereo not drawn) [Compound 183, 2-[6-chloro-1-(2,3-difluorophenyl)-7-fluoro-1,3,4,9-tetrahydro-2H-pyrido[3,4-b]indol-2-yl]-5-fluoropyrimidine-4-carbonitrile] in this work. An IC50 of 8 nM was found for Fc1ccc(C2c3[nH]c4cc(F)c(Cl)cc4c3CCN2c2nccc(C(F)(F)F)n2)c(F)n1 (stereo not drawn) [Compound 184, 6-chloro-1-(2,6-difluoropyridin-3-yl)-7-fluoro-2-[4-(trifluoromethyl)pyrimidin-2-yl]-2,3,4,9-tetrahydro-1H-pyrido[3,4-b]indole] in this work. An IC50 of 16.2 nM was found for Cc1ccnc(N2CCc3c([nH]c4ccc(Cl)cc34)[C@H]2c2ccc(C)c(F)c2F)n1 [Compound 185, (1R)-6-chloro-1-(2,3-difluoro-4-methylphenyl)-2-(4-methylpyrimidin-2-yl)-2,3,4,9-tetrahydro-1H-pyrido[3,4-b]indole] in this work. An IC50 of 3 nM was found for Fc1ccc(C2c3[nH]c4ccc(Cl)c(F)c4c3CCN2c2nccc(C(F)(F)F)n2)c(F)n1 (stereo not drawn) [Compound 186, 6-chloro-1-(2,6-difluoropyridin-3-yl)-5-fluoro-2-[4-(trifluoromethyl)pyrimidin-2-yl]-2,3,4,9-tetrahydro-1H-pyrido[3,4-b]indole] in this work. An IC50 of 20.3 nM was found for Cc1ccc([C@@H]2c3[nH]c4ccc(Cl)cc4c3CCN2c2ncc(F)c(C)n2)c(F)c1F [Compound 187, (1R)-6-chloro-1-(2,3-difluoro-4-methylphenyl)-2-(5-fluoro-4-methylpyrimidin-2-yl)-2,3,4,9-tetrahydro-1H-pyrido[3,4-b]indole] in this work. An IC50 of 0.6 nM was found for N#Cc1ccc(C2c3[nH]c4cc(F)c(Cl)cc4c3CCN2c2nc(C(F)(F)F)cc(C(F)(F)F)n2)cc1 (stereo not drawn) [Compound 188, 4-{2-[4,6-bis(trifluoromethyl)pyrimidin-2-yl]-6-chloro-7-fluoro-2,3,4,9-tetrahydro-1H-pyrido[3,4-b]indol-1-yl}benzonitrile] in this work. An IC50 of 0.4 nM was found for Cc1ccc([C@H]2c3[nH]c4ccc(Cl)c(F)c4c3CCN2c2nc(C)c(F)c(C)n2)c(F)c1F [Compound 189, (1S)-6-chloro-1-(2,3-difluoro-4-methylphenyl)-5-fluoro-2-(5-fluoro-4,6-dimethylpyrimidin-2-yl)-2,3,4,9-tetrahydro-1H-pyrido[3,4-b]indole] in this work. An IC50 of 420 nM was found for Cc1ccc([C@@H]2c3[nH]c4ccc(Cl)c(F)c4c3CCN2c2nc(C)c(F)c(C)n2)c(F)c1F [Compound 190, (1R)-6-chloro-1-(2,3-difluoro-4-methylphenyl)-5-fluoro-2-(5-fluoro-4,6-dimethylpyrimidin-2-yl)-2,3,4,9-tetrahydro-1H-pyrido[3,4-b]indole] in this work. An IC50 of 20.7 nM was found for Fc1c(Cl)ccc2[nH]c3c(c12)CCN(c1nccc(C(F)(F)F)n1)C3c1cncnc1 (stereo not drawn) [Compound 191, 6-chloro-5-fluoro-1-(pyrimidin-5-yl)-2-[4-(trifluoromethyl)pyrimidin-2-yl]-2,3,4,9-tetrahydro-1H-pyrido[3,4-b]indole] in this work. An IC50 of 2 nM was found for Cc1ccc(C2c3[nH]c4ccc(C)c(F)c4c3CCN2c2nccc(C(F)(F)F)n2)c(F)c1F (stereo not drawn) [Compound 192, 1-(2,3-difluoro-4-methylphenyl)-5-fluoro-6-methyl-2-[4-(trifluoromethyl)pyrimidin-2-yl]-2,3,4,9-tetrahydro-1H-pyrido[3,4-b]indole] in this work. An IC50 of 3.8 nM was found for Fc1c(Cl)ccc2[nH]c3c(c12)CCN(c1nccc(C(F)(F)F)n1)C3c1cnc(-n2ccnc2)nc1 (stereo not drawn) [Compound 193, 6-chloro-5-fluoro-1-[2-(1H-imidazol-1-yl)pyrimidin-5-yl]-2-[4-(trifluoromethyl)pyrimidin-2-yl]-2,3,4,9-tetrahydro-1H-pyrido[3,4-b]indole] in this work.
